Test results published in US20240287007A1, “N-(1,3,4-OXADIAZOL-2-YL)PHENYLCARBOXAMIDES AS HERBICIDES” (BAYER AKTIENGESELLSCHAFT, priority 2021, published 2024).

Legend:
Assay type in all cases: in vivo
VERPE (Veronica persica) [1] = test: Pre-emergence herbicidal effect against VERPE; settings: 80 g/ha, scored visually after 3 weeks
Excerpt: (§1) Seeds of monocotyledonous and dicotyledonous weed plants and crop plants are laid out in sandy loam soil in wood-fiber pots and covered with soil. The compounds of the invention, formulated in the form of wettable powders (WP) or as emulsion concentrates (EC), are then applied to the surface of the covering soil as aqueous suspension or emulsion at a water application rate equating to 600 to 800 l/ha with addition of 0.2% wetting agent. After the treatment, the pots are placed in a greenhouse and kept under good growth conditions for the trial plants. The damage to the test plants is scored visually after a test period of 3 weeks by comparison with untreated controls (herbicidal activity in percent (%): 100% activity=the plants have died, 0% activity=like control plants).

[2] = test system: PHBPU (Pharbitis purpurea); test: Pre-emergence herbicidal effect against PHBPU; settings: scored visually after 3 weeks
Excerpt: as §1

AVEFA (Avena fatua) = test: Pre-emergence herbicidal effect against AVEFA; settings: scored visually after 3 weeks
Excerpt: as §1

LOLRI (Lolium rigidum) [3] = test: Pre-emergence herbicidal effect against LOLRI; settings: scored visually after 3 weeks
Excerpt: as §1

[4] = test system: AMARE (Amaranthus retroflexus); test: Post-emergence herbicidal action against AMARE; settings: visual assessment after about 3 weeks
Protocol: (§2) Seeds of monocotyledonous and dicotyledonous weed and crop plants are laid out in sandy loam soil in wood-fiber pots, covered with soil and cultivated in a greenhouse under good growth conditions. 2 to 3 weeks after sowing, the trial plants are treated at the one-leaf stage. The compounds of the invention, formulated in the form of wettable powders (WP) or as emulsion concentrates (EC), are then sprayed onto the green parts of the plants as aqueous suspension or emulsion at a water application rate equating to 600 to 800 l/ha with addition of 0.2% wetting agent. After the test plants have been left to stand in the greenhouse under optimal growth conditions for about 3 weeks, the action of the preparations is assessed visually in comparison to untreated controls (herbicidal action in percent (%): 100% activity=the plants have died, 0% activity=like control plants).

VIOTR (Viola tricolor) [5] = test: Pre-emergence herbicidal effect against VIOTR; settings: scored visually after 3 weeks
Excerpt: as §1

[6] = test system: ABUTH (Abutylon threophrasti); test: Pre-emergence herbicidal effect against ABUTH; settings: scored visually after 3 weeks
Excerpt: as §1

LOLRI (Lolium rigidum) [7] = test: Post-emergence herbicidal action against LOLRI; settings: visual assessment after about 3 weeks
Protocol: as §2

KCHSC (Kochia scoparia) [8] = test: Pre-emergence herbicidal effect against KCHSC; settings: scored visually after 3 weeks
Excerpt: as §1

[9] = test system: ECHCG (Echinochloa crus-galli); test: Pre-emergence herbicidal effect against ECHCG; settings: scored visually after 3 weeks
Excerpt: as §1

VIOTR (Viola tricolor) [10] = test: Post-emergence herbicidal action against VIOTR; settings: visual assessment after about 3 weeks
Protocol: as §2

SETVI (Setaria viridis) [11] = test: Pre-emergence herbicidal effect against SETVI; settings: scored visually after 3 weeks
Excerpt: as §1

KCHSC (Kochia scoparia) [12] = test: Post-emergence herbicidal action against KCHSC; settings: visual assessment after about 3 weeks
Protocol: as §2

[13] = test system: POLCO (Polygonum convolvulus); test: Post-emergence herbicidal action against POLCO; settings: visual assessment after about 3 weeks
Protocol: as §2

[14] = test system: POLCO (Polygonum convolvulus); test: Pre-emergence herbicidal effect against POLCO; settings: scored visually after 3 weeks
Excerpt: as §1

[15] = test system: ALOMY (Alopecurus myosuroides); test: Pre-emergence herbicidal effect against ALOMY; settings: 80 g/ha, scored visually after 3 weeks
Excerpt: as §1

VERPE (Veronica persica) [16] = test: Post-emergence herbicidal action against VERPE; settings: visual assessment after about 3 weeks
Protocol: as §2

[17] = test system: MATIN (Matricaria inodora); test: Pre-emergence herbicidal effect against MATIN; settings: scored visually after 3 weeks
Excerpt: as §1

[18] = test system: AMARE (Amaranthus retroflexus); test: Pre-emergence herbicidal effect against AMARE; settings: scored visually after 3 weeks
Excerpt: as §1

[19] = test system: PHBPU (Pharbitis purpurea); test: Post-emergence herbicidal action against PHBPU; settings: visual assessment after about 3 weeks
Protocol: as §2

[20] = test system: ABUTH (Abutylon threophrasti); test: Post-emergence herbicidal action against ABUTH; settings: visual assessment after about 3 weeks
Protocol: as §2

SETVI (Setaria viridis) [21] = test: Post-emergence herbicidal action against SETVI; settings: visual assessment after about 3 weeks
Protocol: as §2

[22] = test system: DIGSA (Digitaria sanguinalis); test: Post-emergence herbicidal action against DIGSA; settings: visual assessment after about 3 weeks
Protocol: as §2

[23] = test system: MATIN (Matricaria inodora); test: Post-emergence herbicidal action against MATIN; settings: visual assessment after about 3 weeks
Protocol: as §2

[24] = test system: DIGSA (Digitaria sanguinalis); test: Pre-emergence herbicidal effect against DIGSA; settings: scored visually after 3 weeks
Excerpt: as §1

CS(=O)(=O)c1c(OC(F)(F)F)ccc(C(=O)Nc2nnco2)c1Cl [Example 1-35, 2-chloro-3-(methylsulfonyl)-N-(1,3,4-oxadiazol-2-yl)-4-(trifluoromethoxy)benzamide]
Pre-emergence effect at 80 g/ha against VERPE in % (VERPE (Veronica persica) [1]): 100% | Pre-emergence effect at 20 g/ha against PHBPU in % ([2]; 20 g/ha): 80% | Pre-emergence effect at 80 g/ha against PHBPU in % ([2]; 80 g/ha): 100% | Pre-emergence effect at 20 g/ha against AVEFA in % (AVEFA (Avena fatua); 20 g/ha): 90% | Pre-emergence effect at 80 g/ha against A VEFA in % (AVEFA (Avena fatua); 80 g/ha): 100% | Pre-emergence effect at 20 g/ha against LOLRI in % (LOLRI (Lolium rigidum) [3]; 20 g/ha): 80% | Pre-emergence effect at 80 g/ha against LOLRI in % (LOLRI (Lolium rigidum) [3]; 80 g/ha): 90% | Post-emergence effect at 20 g/ha against AMARE in % ([4]; 20 g/ha): 90% | Post-emergence effect at 80 g/ha against AMARE in % ([4]; 80 g/ha): 90% | Pre-emergence effect at 20 g/ha against VIOTR in % (VIOTR (Viola tricolor) [5]; 20 g/ha): 100% | Pre-emergence effect at 80 g/ha against VIOTR in % (VIOTR (Viola tricolor) [5]; 80 g/ha): 100% | Pre-emergence effect at 20 g/ha against ABUTH in % ([6]; 20 g/ha): 90% | Pre-emergence effect at 80 g/ha against ABUTH in % ([6]; 80 g/ha): 100% | Post-emergence effect at 80 g/ha against LOLRI in % (LOLRI (Lolium rigidum) [7]): 80% | Pre-emergence effect at 20 g/ha against KCHSC in % (KCHSC (Kochia scoparia) [8]; 20 g/ha): 100% | Pre-emergence effect at 80 g/ha against KCHSC in % (KCHSC (Kochia scoparia) [8]; 80 g/ha): 100% | Pre-emergence effect at 20 g/ha against ECHCG in % ([9]; 20 g/ha): 100% | Pre-emergence effect at 80 g/ha against ECHCG in % ([9]; 80 g/ha): 100% | Post-emergence effect at 20 g/ha against VIOTR in % (VIOTR (Viola tricolor) [10]; 20 g/ha): 100% | Post-emergence effect at 80 g/ha against VIOTR in % (VIOTR (Viola tricolor) [10]; 80 g/ha): 100% | Pre-emergence effect at 20 g/ha against SETVI in % (SETVI (Setaria viridis) [11]; 20 g/ha): 100% | Pre-emergence effect at 80 g/ha against SETVI in % (SETVI (Setaria viridis) [11]; 80 g/ha): 100% | Post-emergence effect at 20 g/ha against KCHSC in % (KCHSC (Kochia scoparia) [12]; 20 g/ha): 100% | Post-emergence effect at 80 g/ha against KCHSC in % (KCHSC (Kochia scoparia) [12]; 80 g/ha): 100% | Post-emergence effect at 20 g/ha against POLCO in % ([13]; 20 g/ha): 80% | Post-emergence effect at 80 g/ha against POLCO in % ([13]; 80 g/ha): 100% | Pre-emergence effect at 20 g/ha against POLCO in % ([14]; 20 g/ha): 90% | Pre-emergence effect at 80 g/ha against POLCO in % ([14]; 80 g/ha): 100% | Pre-emergence effect at 80 g/ha against ALOMY in % [15]: 80% | Post-emergence effect at 20 g/ha against VERPE in % (VERPE (Veronica persica) [16]; 20 g/ha): 90% | Post-emergence effect at 80 g/ha against VERPE in % (VERPE (Veronica persica) [16]; 80 g/ha): 100% | Pre-emergence effect at 20 g/ha against MATIN in % ([17]; 20 g/ha): 100% | Pre-emergence effect at 80 g/ha against MATIN in % ([17]; 80 g/ha): 100% | Pre-emergence effect at 20 g/ha against AMARE in % ([18]; 20 g/ha): 100% | Pre-emergence effect at 80 g/ha against AMARE in % ([18]; 80 g/ha): 100% | Post-emergence effect at 20 g/ha against PHBPU in % ([19]; 20 g/ha): 90% | Post-emergence effect at 80 g/ha against PHBPU in % ([19]; 80 g/ha): 100% | Post-emergence effect at 20 g/ha against ABUTH in % ([20]; 20 g/ha): 80% | Post-emergence effect at 80 g/ha against ABUTH in % ([20]; 80 g/ha): 90% | Post-emergence effect at 20 g/ha against SETVI in % (SETVI (Setaria viridis) [21]; 20 g/ha): 100% | Post-emergence effect at 80 g/ha against SETVI in % (SETVI (Setaria viridis) [21]; 80 g/ha): 100% | Post-emergence effect at 20 g/ha against DIGSA in % ([22]; 20 g/ha): 90% | Post-emergence effect at 80 g/ha against DIGSA in % ([22]; 80 g/ha): 100% | Post-emergence effect at 20 g/ha against MATIN in % ([23]; 20 g/ha): 90% | Post-emergence effect at 80 g/ha against MATIN in % ([23]; 80 g/ha): 100% | Pre-emergence effect at 20 g/ha against DIGSA in % ([24]; 20 g/ha): 100% | Pre-emergence effect at 80 g/ha against DIGSA in % ([24]; 80 g/ha): 100%
